Patent EP0491103B1, “Compositions for therapeutic use comprising organogermanium derivatives” (Larranaga Mendizabal, Eusebio, priority 1990, dated 1992)

Assays:
[1] = test system: macrophages obtained from the mice peritoneum; experiment: Test 2: Production of macrophages in mice (peritoneal macrophage count); format: in vivo, BALB/C mice; details: 1 ml subcutaneously every 3 days; for macrophage counts: after 30 days (10 sessions), first group, distilled water 1.0; for average macrophage counts: at 60 days (20 sessions), second group, distilled water 1.1
[2] = test system: macrophages removed from the second Group mice; experiment: Test 2: protein synthesis (35S-met.) and DNA synthesis (3H-Thy.) in macrophages removed from treated mice and cultured in vitro for 24 hours; format: in vivo, BALB/C mice; details: macrophages of second group mice (60 days) cultured 24 hours, water-treated mice = 100%; for relative (percentage) values of DNA synthesis: ³H-Thy.; for relative (percentage) values of protein synthesis: ³⁵S-met.
Method: 15 BALB/C mice (18-20 g) were divided into two groups of 5 and 10 mice. The first group was administered 1 ml of the aqueous solutions described below every 3 days for 30 days (10 sessions), subcutaneously.
The solutions applied were as follows: a) distilled water, b) sodium thiosulphate (25 g/lit), c) formic acid (0.3 g/lit), d) above described organogermanium compound solution, and e) above described organogermanium compound plus formic acid (0.3 g/lit).
Finally, the macrophages removed from the second Group mice were cultured "in vitro" for 24 hours, protein synthesis (using ³⁵S-met. as indicator) and DNA synthesis (using ³H-Thy.) determinations being made therewith.

[3] = as indicated in Miyao K. et al., DRUGS OF FUTURE 13, no. 5, 1988; cited from earlier work

Molecule	macrophage counts [1]	average macrophage counts [1]	relative (percentage) values of DNA synthesis [2]	relative (percentage) values of protein synthesis [2]	solubility in water [3]
O=CO [formic acid]	1.2 millions of microphages per millilitre	1.2 millions of macrophages per millilitre	140%	115%	–
O=C(O)C[CH2][Ge](=[O])[O][Ge](=[O])[CH2]CC(=O)O [Ge-132, carboxyethylgermanium sesquioxide]	–	–	–	–	soluble in water
sodium thiosulphate	0.9 millions of microphages per millilitre	1.0 millions of macrophages per millilitre	102%	98%	–
